This note sets out measurements from patent US20230398090A1, “METHOD OF TREATING CORONAVIRUS INFECTION BY ADMINISTRATION OF ETHYL MERCURY OR THIOL DERIVATIVE THEREOF” (BEECH TREE LABS, INC., priority 2020, published 2023).

One experiment deals with coronavirus (SARS-CoV-2). The note with it: for time until all of the subject's symptoms resolved after initial treatment: 200 ng sublingual every 15 minutes for one hour, then hourly until bedtime.
Experiment [1] concerns pro-inflammatory cytokines; anti-inflammatory genes. Conditions: genomic studies, no details given.
Where [2] appears, read: Example 4: person, after less than 48 hours of therapy.

Where two headings read alike, the source gives them in different places. A value given as a limit tells only on which side of the number the result lay.

For the molecule `C[CH2][Hg][S]c1ccccc1C(=O)[O-].[Na+]` [thimerosal], in the experiment on coronavirus (SARS-CoV-2) (Example 1: person, positive SARS-CoV-2 test, fever 104° F., shortness of breath, cough), the “time until all of the subject's symptoms resolved after initial treatment” value was in the range of 20 to 24 h. Also, in the experiment on coronavirus (SARS-CoV-2) (Example 2: person, symptoms of SARS-CoV-2 infection (fever 103° F., lethargy, shortness of breath, achiness)), the “time until all of the subject's symptoms resolved after initial treatment” value was not above 24 h. The weakness result with coronavirus (SARS-CoV-2) (Example 3: person, 72 hours after initial treatment) is given as “only partially improved”. In addition, in the experiment with coronavirus (SARS-CoV-2) (Example 3: person, presumptive SARS-CoV-2 (fever, weakness, shortness of breath, cough), 200 ng sublingual, day 1 schedule, then six times daily on days two and three), the “time until all of the subject's symptoms resolved after initial treatment (with the exception of weakness)” value came out at 72 h. For the same molecule, in the experiment with coronavirus (SARS-CoV-2) (setting [2]), the chest pain result was “not completely eliminated”; the “subject-reported energy, appetite and taste” value was “increased energy, increased appetite and improved ability to taste”. In addition, the “time of therapy until subject reported diminution of all symptoms” value in the experiment with coronavirus (SARS-CoV-2) (Example 4: person, positive SARS-CoV-2 test (cough, mild fever, aching, decreased energy, stomach pain), 200 ng sublingual, day 1 schedule, then six times daily on day two) is given as “less than 48 hours”. For the same molecule, in experiment [1], the “effect on other anti-inflammatory genes” value is “up-regulating” and the “effect on several pro-inflammatory cytokines” value is recorded as “down-regulates”.
